The values below come from patent publication US11642332B2, “(2R,4R)-5-(5′-chloro-2′-fluorobiphenyl-4-yl)-2-hydroxy-4-[(5-methyloxazole-2-carbonyl)amino]pentanoic acid” (THERAVANCE BIOPHARMA R&D IP, LLC, priority 2015, dated 2023).

Like-named read-outs stand apart in the source and are kept apart here.

As a reminder, the bioavailability is the share of a dose that reaches the circulation, judged against a reference dose that is usually intravenous. High values mean much systemic uptake, low ones little systemic uptake.

A short description of series [1]: IV/PO pharmacokinetic study of Compound 1 in monkeys. Format: in vivo. Particulars: male, cynomolgus monkey, plasma, 1 mg/kg; for AUC(0-t): read-out: AUClast Mean. On the procedure:
A monkey PK study was performed with an appropriate mass of compound 1 in volume of vehicle (e.g., 5% sodium bicarbonate, 5% dextrose in H2O, pH 7.4, for oral and PEG200:EtOH:Water (40:10:50), pH 7.0, filtered through a […] PDVF syringe for IV) such that the final concentration was dosed at 0.5 mL/kg (IV) or 2.0 mL/kg (PO).
Male cynomologus monkeys (3 per route) housed at Xenometrics (Stilwell, Kans.) received an IV or PO dose of compound 1 at 1 mg/kg. Animals administered IV doses had access to food ad libitum and those administered PO doses were fasted overnight and received food approximately 4 hours after dose administration. Blood samples were collected from each animal at each time point (pre-dose, 0.083 hour, 0.25 hour, 0.5 hour, 1 hour, 2 hours, 4 hours, 6 hours, 8 hours, 12 hours, and 24 hours) via the cephalic, femoral, or sphenous vein through 48 hours. All samples were collected into K2EDTA tubes and placed on ice. Samples were processed to plasma by centrifugation (3200 rpm, 10 minutes, 5° C.), and acidified with a final concentration of 2% acetic acid. Aliquots of plasma were transferred to a 96-well plate tubes and stored frozen (−70° C.) prior to bioanalysis. Plasma concentrations of compound 1 were determined by LC/MS/MS. Plasma study samples were vortexed and placed in a 96-well plate. The samples were extracted with 200 μL of 0.2% formic acid in acetonitrile with an internal standard. The extract was centrifuged for 10 minutes at 3700 RPM and supernatant was mixed with 0.2% formic acid in water. Samples (15 μL) were injected on a Thermo (C18 50×2.1 mm) column with a flow rate of 0.3 mL/min. […] Pharmacokinetic parameters of compound 1 were determined by non-compartmental analysis (Model 201 and Model 200 for IV and PO administration, respectively) using Phoenix WinNonlin Version 6.3 (Certara, Sunnyvale, Calif.) and using individual plasma concentration time profiles from 3 animals.
Plasma clearance was determined from the intravenous arm of the study, and represents the rate at which plasma is cleared of drug. […]

Series [2] is described as follows: Renal excretion of Compound 1 in rat. Format: in vivo, male Sprague Dawley rats. Particulars: IV 0.5 mg/kg. The method, then: An important factor for insuring appropriate long term drug dosing and correct steady-state drug concentrations in patients is drug clearance. In general, decreased drug clearance results in higher drug concentrations and greater drug effects. In order to understand renal clearance of Compound 1, the percent of administered dose recovered in urine following a single IV dose was assessed in three animal species. Three separate studies in male Sprague Dawley rats, male beagle dogs and male cynomolgus monkeys, respectively, were conducted and the procedure and experimental results are described below.
Male Sprague Dawley rats (N=3), having body weights of 0.348 to 0.362 kg, received an IV dose of Compound 1 at 0.5 mg/kg as part of a dosing cassette. Compound 1 was dissolved in 5% NaHCO3 in D5W (5% dextrose in water, pH 7.4) and filtered through a […] polyvinyl difluoride (PVDF) syringe filter prior to administration. The rats had access to food ad libitum before and after administration of Compound 1. Urine samples were collected in metabolic cages and maintained on frozen dry ice during collection. The samples were thawed and the volume of the urine was recorded. An aliquot of the urine sample was transferred to a polypropylene storage tube, frozen and stored (−80° C.) prior to bioanalysis.
Rat urine concentrations of Compound 1 were determined by LC/MS/MS. […]

The target of series [3] is T1, human neprilysin (EC 3.4.24.11; NEP) (Homo sapiens, UniProt P08473).
T1 construct: purchased R&D Systems 1182-ZN
The series can be described thus: In vitro assay for the quantitation of inhibitor potency at human NEP. Particulars: recombinant human NEP, fluorogenic peptide substrate 10 μM, 37° C.; read-out: pKi at human NEP (converted). Format: biochemical. The method, then: The inhibitory activity at human neprilysin (EC 3.4.24.11; NEP) was determined as follows.
Recombinant human NEP was obtained commercially (R&D Systems, Minneapolis, Minn., catalog number 1182-ZN). The fluorogenic peptide substrate Mca-D-Arg-Arg-Leu-Dap-(Dnp)-OH (Medeiros et al. (1997) Braz. J. Med. Biol. Res. 30:1157-62; Anaspec, San Jose, Calif.) was used.
The assay was performed in 384-well white opaque plates at 37° C. using the fluorogenic peptide substrate at a concentration of 10 μM in Assay Buffer (50 mM HEPES, pH 7.5, 100 mM NaCl, 0.01% polyethylene glycol sorbitan monolaurate (Tween-20), 10 μM ZnSO4).
Test compounds were assayed over the range of concentrations from 10 μM to 20 pM. Test compounds were added to the enzyme and incubated for 30 minute at 37° C. prior to initiating the reaction by the addition of substrate. Reactions were terminated after 20 minutes of incubation at 37° C. by the addition of glacial acetic acid to a final concentration of 3.6% (v/v).
Plates were read on a fluorometer with excitation and emission wavelengths set to […]. Inhibition constants were obtained by nonlinear regression of the data using the equation (GraphPad Software, Inc., San Diego, Calif.): v=v0/[1+(I/K′)] where v is the reaction rate, v0 is the uninhibited reaction rate, I is the inhibitor concentration and K′ is the apparent inhibition constant.
The compounds were tested in this assay and found to have pKi values at human NEP as follows.

T1 sequence (P08473 52-750 limits assumed): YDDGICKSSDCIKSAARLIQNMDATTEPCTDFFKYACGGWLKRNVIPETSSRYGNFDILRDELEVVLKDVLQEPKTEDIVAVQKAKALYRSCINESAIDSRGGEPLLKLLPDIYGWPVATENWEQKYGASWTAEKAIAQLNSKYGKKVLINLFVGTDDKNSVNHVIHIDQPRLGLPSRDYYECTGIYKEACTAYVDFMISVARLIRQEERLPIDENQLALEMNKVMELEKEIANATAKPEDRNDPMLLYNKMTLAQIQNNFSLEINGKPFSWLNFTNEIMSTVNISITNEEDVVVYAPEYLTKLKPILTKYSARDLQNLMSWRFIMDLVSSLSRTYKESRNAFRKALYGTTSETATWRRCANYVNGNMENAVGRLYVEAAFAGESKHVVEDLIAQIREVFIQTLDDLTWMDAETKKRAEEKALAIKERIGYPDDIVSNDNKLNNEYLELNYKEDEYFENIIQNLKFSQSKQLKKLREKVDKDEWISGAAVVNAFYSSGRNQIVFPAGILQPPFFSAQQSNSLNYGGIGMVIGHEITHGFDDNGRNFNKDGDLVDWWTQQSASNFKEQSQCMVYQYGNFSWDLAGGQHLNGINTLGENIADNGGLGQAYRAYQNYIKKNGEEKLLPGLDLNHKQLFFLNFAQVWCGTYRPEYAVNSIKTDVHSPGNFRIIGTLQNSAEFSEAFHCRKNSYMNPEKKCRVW

For the compound `Cc1cnc(C(=O)N[C@H](Cc2ccc(-c3cc(Cl)ccc3F)cc2)C[C@@H](O)C(=O)O)o1` [Compound 1, (2R,4R)-5-(5′-Chloro-2′-fluorobiphenyl-4-yl)-2-hydroxy-4-[(5-methyloxazole-2-carbonyl)amino]pentanoic Acid], the AUC(0-t) in series [1] (IV) is 2780 ng·h/mL; in series [1] (PO) it was 1660 ng·h/mL. This compound also displayed a bioavailability in series [1] (oral, PO vs IV) of roughly 60%. For the same compound, in series [2], the “Amount of Compound 1 Excreted in Urine over Collection Period (0-24 hrs) Mean” value stood at 0.0462 µg. Further, the Ki in series [3] is 0.2 nM.
